Test results from patent US10420815B2, “Combinational therapy for synergistic inhibition of gram-positive and gram-negative bacteria” (priority 2015, dated 2019).
Several values for one entry are separate records, joined by “and”; a condition that tells them apart may be missing. Identical values can stand only once. Entries after “also recorded” stand apart in the source; their conditions may differ. Like-named read-outs stand apart in the source and are kept apart here.

Assays:
Format in all cases: cell-based, Staphylococcus aureus
MRSA (ATCC 33593) = test: microbe, parasite or virus in culture
Excerpt: (§1) MRSA (ATCC 33593), MSSA (ATCC 29213), and MRSA USA300 (BAA-1680) strains were purchased from the American Type Culture Collection (ATCC; Manassas, Va.). Eight clinical isolates of MRSA were obtained from the Culture Collection of Antimicrobial Resistant Microbes, Korea National Research Resource Center (KNRRC). Salmonella enterica Typhimurium LT2 was purchased from ATCC, and Escherichia coli O157:H7 is a kind gift from Dr. Sangryeol Ryu (Seoul National University, South Korea). All S. aureus strains were maintained in Trypticase Soy (TS) medium, and E. coli O157:H7 and Salmonella were routinely grown aerobically on Luria-Bertani (LB) media at 37° C. For measuring growth kinetics, an overnight culture of MRSA in Mueller-Hinton (MH) broth was diluted 100-fold in fresh MH broth and cultured until early exponential phase. The culture (200 μl) was transferred to each well of a sterile 96-well plate and incubated at 37° C. with bacitracin alone, alkyl gallate alone, and combination of bacitracin/alkyl gallates at various concentrations. The optical density at 600 nm (OD600) was measured every hour with FLUOstar® Omega (BMG Labtech, Germany).
(§2) Broth micro dilution assays were performed to determine the minimum inhibitory concentrations (MIC) accordance to the M7-A7 protocol of the Clinical and Laboratory Standards Institute (CLSI) guidelines^28. The susceptibility test was carried out with an initial bacterial inoculum of 1.5×10^5 CFU ml^−1. Alkyl gallates and bacitracin were serially diluted in a polystyrene 96 well plate and the plate was incubated at 37° C. for 24 h. Minimum bactericidal concentration (MBC) was determined by spotting 10 μl of cultures from MIC tests onto MH agar and incubated aerobically at 37° C.
(§3) MICs were determined with MRSA and methicillin-sensitive S. aureus (MSSA) using a broth dilution method as described above.
(§4) MRSA and MSSA were cultured overnight with antioxidants (0.5 μg/ml) and bacitracin at various concentrations and 10 μL of the culture was spotted on MH agar plates and incubated aerobically at 37° C. to observe the bacterial viability. The results in FIGS. 9A, 9B, 9C and 9D (photographs of plates) show the Minimal Bactericidal Concentrations (MBCs) for indicated antioxidants. Bacitracin killed MRSA and MSSA at concentrations greater than or equal to 2 μg/mi.

MSSA (ATCC 29213) = test: MIC (broth dilution) and MBC (spotting) of phenolic antioxidants and bacitracin; settings: for MIC: antioxidant alone
Excerpt: as §1, §2, §3, §4

[1] = test system: MRSA (normal MRSA strain, not USA300); test: MRSA growth (optical density) with bacitracin and phenolic antioxidants; settings: for growth of MRSA with bacitracin plus antioxidant: bacitracin 0.002 μg/mL, antioxidant 0.5 μg/mL, FIG. 6; for optical density of MRSA after 18 h culture: inhibition of growth in combination with bacitracin: bacitracin 0.002 μg/ml (ca. 0.0002 U), antioxidant 0.5 μg/ml, FIG. 8
Excerpt: as §1
MRSA were grown with bacitracin (0.002 μg/mL) with antioxidant (as shown) at 0.5 μg/mL.
FIG. 7A is growth with no added bacitracin or lauryl gallate.
The optical density of MRSA was measured after 18 h culture with bacitracin (0.002 μg/ml) and antioxidants (as indicated at 0.5 μg/ml). Also measured were controls with no additions, with bacitracin alone and with antioxidant alone. FIGS. 8A, 8B, 8C and 8D are graphs illustrating the results.

MRSA 3795 = test: microbe, parasite or virus in culture; settings: Staphylococcus aureus
Excerpt: as §1, §2

MRSA 3799 = test: microbe, parasite or virus in culture; settings: Staphylococcus aureus
Excerpt: as §1, §2

MRSA 3823 = test: microbe, parasite or virus in culture; settings: Staphylococcus aureus
Excerpt: as §1, §2

MRSA 3865 = test: microbe, parasite or virus in culture; settings: Staphylococcus aureus
Excerpt: as §1, §2

MRSA 3876 = test: microbe, parasite or virus in culture; settings: Staphylococcus aureus
Excerpt: as §1, §2

MRSA 3903 = test: microbe, parasite or virus in culture; settings: Staphylococcus aureus
Excerpt: as §1, §2

MRSA 3A585 = test: microbe, parasite or virus in culture; settings: Staphylococcus aureus
Excerpt: as §1, §2

MRSA 3095 = test: microbe, parasite or virus in culture; settings: Staphylococcus aureus
Excerpt: as §1, §2

MRSA USA300 (BAA-1680) = test: microbe, parasite or virus in culture; settings: agent alone
Excerpt: as §1, §2

[2] = Staphylococcus aureus, MRSA, antioxidant alone, read-out: MIC
[3] = Staphylococcus aureus, read-out: MIC
[4] = MRSA 3795 (human/nose), read-out: MIC
[5] = MRSA 3799 (human/nose), read-out: MIC
[6] = MRSA 3823 (human/nose), read-out: MIC
[7] = MRSA 3865 (human/skin), read-out: MIC
[8] = MRSA 3876 (human/skin), read-out: MIC
[9] = MRSA 3903 (human/skin), read-out: MIC
[10] = MRSA 3A585 (human/blood), read-out: MIC

## Cc1cc(C(C)(C)C)c(O)c(C(C)(C)C)c1 [Butylated hydroxytoluene, butylated hydroxytoluene]
MRSA (ATCC 33593); MRSA, antioxidant 0.5 μg/ml
  synergistic killing with bacitracin: did not generate any synergistic killing
MRSA (ATCC 33593); [2]
  MIC: > 1020 µg/mL
MSSA (ATCC 29213); [3]
  MIC: 1020 µg/mL
MSSA (ATCC 29213); antioxidant 0.5 μg/ml
  synergistic killing with bacitracin: did not generate any synergistic killing
MSSA (ATCC 29213)
  MIC: >1024 µg/mL
[1]
  growth of MRSA with bacitracin plus antioxidant: did not show any synergistic effects with bacitracin
[1]; listed as BHT
  optical density of MRSA after 18 h culture: inhibition of growth in combination with bacitracin: no synergistic inhibition of growth; also recorded: did not show any synergistic antimicrobial effects

## O=C(N[C@H](CO)[C@H](O)c1ccc([N+](=O)[O-])cc1)C(Cl)Cl [CL, chloramphenicol]
MRSA 3795; [4]
  MIC: ≥ 128 µg/mL
MRSA 3799; [5]
  MIC: ≥ 128 µg/mL
MRSA 3823; [6]
  MIC: ≥ 128 µg/mL
MRSA 3865; [7]
  MIC: ≥ 128 µg/mL
MRSA 3876; [8]
  MIC: < 0.12 µg/mL
MRSA 3903; [9]
  MIC: ≥ 128 µg/mL
MRSA 3A585; [10]
  MIC: ≤ 0.25 µg/mL

## O=C(O)/C=C/c1ccc(O)c(O)c1 [Caffeic acid, caffeic acid]
MRSA (ATCC 33593); [2]
  MIC: > 1020 µg/mL
MSSA (ATCC 29213); [3]
  MIC: > 1020 µg/mL

## Oc1cc(O)c2c(c1)OC(c1ccc(O)c(O)c1)C(O)C2 (stereo not drawn) [Catechin(+), catechin]
MRSA (ATCC 33593); MRSA, antioxidant alone
  MIC: >1024 µg/mL
MSSA (ATCC 29213)
  MIC: >1024 µg/mL

## O=c1cc(-c2ccccc2)oc2cc(O)cc(O)c12 [Chrysin, chrysin]
MRSA (ATCC 33593); [2]
  MIC: > 1020 µg/mL
MSSA (ATCC 29213); [3]
  MIC: > 1020 µg/mL

## O=C(O)C=Cc1ccccc1 [Cinnamic acid, cinnamic acid]
MRSA (ATCC 33593); [2]
  MIC: > 1020 µg/mL
MSSA (ATCC 29213); [3]
  MIC: > 1020 µg/mL

## CC[C@H]1OC(=O)[C@H](C)[C@@H](O[C@H]2C[C@@](C)(OC)[C@@H](O)[C@H](C)O2)[C@H](C)[C@@H](O[C@@H]2O[C@H](C)C[C@H](N(C)C)[C@H]2O)[C@](C)(O)C[C@@H](C)C(=O)[C@H](C)[C@@H](O)[C@]1(C)O [ERY, erythromycin]
MRSA 3095; MRSA 3095 (human/skin), read-out: MIC
  MIC: ≥ 128 µg/mL
MRSA 3795; [4]
  MIC: ≥ 128 µg/mL
MRSA 3799; [5]
  MIC: ≥ 128 µg/mL
MRSA 3823; [6]
  MIC: ≥ 128 µg/mL
MRSA 3865; [7]
  MIC: ≥ 128 µg/mL
MRSA 3876; [8]
  MIC: ≥ 128 µg/mL
MRSA 3903; [9]
  MIC: ≥ 128 µg/mL
MRSA 3A585; [10]
  MIC: ≥ 4 µg/mL

## Oc1cc(O)c2c(c1)O[C@H](c1ccc(O)c(O)c1)[C@H](O)C2 [Epicatechin, epicatechin]
MRSA (ATCC 33593); [2]
  MIC: > 1020 µg/mL
MSSA (ATCC 29213); [3]
  MIC: > 1020 µg/mL

## O=C(O[C@@H]1Cc2c(O)cc(O)cc2O[C@@H]1c1cc(O)c(O)c(O)c1)c1cc(O)c(O)c(O)c1 [Epigallocatechin gallate, epigallocatechin gallate]
MRSA (ATCC 33593); MRSA, antioxidant 0.5 μg/ml, compared to bacitracin alone
  fold decrease of bacitracin MBC by antioxidant: > 32 fold
MRSA (ATCC 33593); MRSA, antioxidant alone
  MIC: 512 µg/mL and 256 µg/mL
MSSA (ATCC 29213); antioxidant 0.5 μg/ml, compared to bacitracin alone
  fold decrease of bacitracin MBC by antioxidant: 16 fold
MSSA (ATCC 29213)
  MIC: 128 µg/mL and 64 µg/mL
[1]
  growth of MRSA with bacitracin plus antioxidant: significantly inhibited the growth of MRSA
  optical density of MRSA after 18 h culture: inhibition of growth in combination with bacitracin: significantly inhibited MRSA

## O=C(O)c1cc(O)c(O)c(O)c1 [Gallic acid, gallic acid]
MRSA USA300 (BAA-1680)
  MBC: 256 µg/mL
  MIC: 128 µg/mL
MRSA 3095; MRSA
  MIC: > 1020 µg/mL
MRSA 3795; MRSA
  MIC: > 1020 µg/mL
MRSA 3799; MRSA
  MIC: > 1020 µg/mL
MRSA 3823; MRSA
  MIC: > 1020 µg/mL
MRSA 3865; MRSA
  MIC: > 1020 µg/mL
MRSA 3876; MRSA
  MIC: > 1020 µg/mL
MRSA 3903; MRSA
  MIC: > 1020 µg/mL
MRSA 3A585; MRSA
  MIC: > 1020 µg/mL
MRSA (ATCC 33593); Staphylococcus aureus
  MIC: > 1020 µg/mL
MSSA (ATCC 29213); [3]
  MIC: > 1020 µg/mL

## COc1ccc([C@@H]2CC(=O)c3c(O)cc(O[C@@H]4O[C@H](CO[C@@H]5O[C@@H](C)[C@H](O)[C@@H](O)[C@H]5O)[C@@H](O)[C@H](O)[C@H]4O)cc3O2)cc1O [Hesperedin, hesperidin]
MRSA (ATCC 33593); MRSA, antioxidant alone
  MIC: >1024 µg/mL
MSSA (ATCC 29213)
  MIC: >1024 µg/mL

## O=c1c(O)c(-c2ccc(O)cc2O)oc2cc(O)cc(O)c12 [Morin, morin]
MRSA (ATCC 33593); [2]
  MIC: > 1020 µg/mL
MSSA (ATCC 29213); [3]
  MIC: > 1020 µg/mL
